# Reference: patent publication US11261211B2, “19-NOR neuroactive steroids and methods of use thereof” (Sage Therapeutics, Inc., priority 2013, dated 2022)
# Columns and labels:
# α1β2γ2 GABAA receptor = α1β2γ2 GABAA receptor (Homo sapiens (Human), UniProt P14867+P47870); assay: Patch clamp electrophysiology of recombinant α1β2γ2 GABAA receptors in LTK cells; assay type: cell-based; details: for α1β2γ2 GABA Qpatch in Ltk (Efficacy at 10 μm) / activity at 10 µM: 10 μM compound, Ltk cells, GABA EC20 2 μM, Qpatch; for Emax / activity at 10 µM: LTK; for Emax / EC50: potentiation of GABA EC20 (2 μM) current; for Emax: read-out: GABAa alpha1 (α1β2γ2) Emax (%); for EC50: read-out: GABAa alpha1 (α1β2γ2)EC50; for activity at 10 µM: read-out: α1β2γ2 GABA Qpatch in Ltk (Efficacy at 10 μm)
# In short: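 Whole-cell voltage clamp at −80 mV, room temperature, in LTK cells stably expressing α1β2γ2 or CHO cells transiently expressing α4β3δ, manual or QPatch. Test article (0.01–10 μM, increasing, 30 s preincubation) then 2 μM GABA (EC20) for 2 s; potentiation = peak current with compound relative to GABA alone ×100.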
# α4β3δ GABAA receptor = α4β3δ GABAA receptor (Homo sapiens (Human), UniProt P28472+P48169); assay: Patch clamp electrophysiology of recombinant α4β3δ GABAA receptors in CHO cells; assay type: cell-based; details: 10 μM compound, GABA EC20 2 μM; for activity at 10 µM: manual patch, read-out: α4β3δ GABA Manual Patch in CHO (Efficacy at 10 μM)
# Experimental: Cellular electrophysiology is used to measure the pharmacological properties of our GABAA receptor modulators in heterologous cell systems. Each compound is tested for its ability to affect GABA mediated currents at a submaximal agonist dose (GABA EC20=2 μM). LTK cells are stably transfected with the α1β2γ2 subunits of the GABA receptor and CHO cells are transiently transfected with the α4β3δ subunits via the Lipofecatamine method. Cells were passaged at a confluence of about 50-80% and then seeded onto 35 mm sterile culture dishes containing 2 ml culture complete medium without antibiotics or antimycotics. Confluent clusters of cells are electrically coupled (Pritchett et al., 1988). Because responses in distant cells are not adequately voltage clamped and because of uncertainties about the extent of coupling (Verdoorn et al., 1990), cells were cultivated at a density that enables the recording of single cells (without visible connections to other cells).
# Whole cell currents were measured with HEKA EPC-10 amplifiers using PatchMaster software or by using the high throughput QPatch platform (Sophion). Bath solution for all experiments contained (in mM): NaCl 137 mM, KCl 4 mM, CaCl2 1.8 mM, MgCl2 1 mM, HEPES 10 mM, D-Glucose 10 mM, pH (NaOH) 7.4. In some cases 0.005% cremophor was also added. Intracellular (pipette) solution contained: KCl 130 mM, MgCl2 1 mM, Mg-ATP 5 mM, HEPES 10 mM, EGTA 5 mM, pH 7.2. During experiments, cells and solutions were maintained at room temperature (19° C.-30° C.). For manual patch clamp recordings, cell culture dishes were placed on the dish holder of the microscope and continuously perfused (1 ml/min) with bath solution. After formation of a Gigaohm seal between the patch electrodes and the cell (pipette resistance range: 2.5 MΩ-6.0 MΩ; seal resistance range: >1 GΩ) the cell membrane across the pipette tip was ruptured to assure electrical access to the cell interior (whole-cell patch-configuration). For experiments using the QPatch system, cells were transferred as suspension to the QPatch system in the bath solution and automated whole cell recordings were performed.
# Cells were voltage clamped at a holding potential of −80 mV. For the analysis of test articles, GABA receptors were stimulated by 2 μM GABA after sequential pre-incubation of increasing concentrations of the test article. Pre-incubation duration was 30 s and the duration of the GABA stimulus was 2 s. Test articles were dissolved in DMSO to form stock solutions (10 mM). Test articles were diluted to 0.01, 0.1, 1, and 10 μM in bath solution. All concentrations of test articles were tested on each cell. The relative percentage potentiation was defined as the peak amplitude in response to GABA EC20 in the presence of the test article divided by the peak amplitude in response to GABA EC20 alone, multiplied by 100.
Compound,α1β2γ2 GABA Qpatch in Ltk (Efficacy at 10 μm) (α1β2γ2 GABAA receptor),Emax (α1β2γ2 GABAA receptor) [%],EC50 (α1β2γ2 GABAA receptor) [nM],α4β3δ GABA Manual Patch in CHO (Efficacy at 10 μM) (α4β3δ GABAA receptor),activity at 10 µM (α1β2γ2 GABAA receptor) [%],activity at 10 µM (α4β3δ GABAA receptor) [%]
C[C@@]1(O)CC[C@H]2[C@H](CC[C@@H]3[C@@H]2CC[C@]2(C)[C@@H](C(=O)Cn4cc5ncccc5n4)CC[C@@H]32)C1 [SA-4],C (“C” indicates an efficacy value of >500%),500 to 1000,1000 to 2000,B (“B” indicates an efficacy value of >100-500%),,
C[C@@]1(O)CC[C@H]2[C@H](CC[C@@H]3[C@@H]2CC[C@]2(C)[C@@H](C(=O)Cn4cc5ccccc5n4)CC[C@@H]32)C1 [SA-6],C (“C” indicates an efficacy value of >500%),500 to 1000,> 2000,B (“B” indicates an efficacy value of >100-500%),,
C[C@@]1(O)CC[C@H]2[C@H](CC[C@@H]3[C@@H]2CC[C@]2(C)[C@@H](C(=O)Cn4cc5c(n4)CCCC5)CC[C@@H]32)C1 [SA-7],B (“B” indicates an efficacy value of >100-500%),,,B (“B” indicates an efficacy value of >100-500%),,
C[C@@]1(O)CC[C@H]2[C@H](CC[C@@H]3[C@@H]2CC[C@]2(C)[C@@H](C(=O)Cn4nc5ccncc5n4)CC[C@@H]32)C1 [SA-11],,,,,> 500,100 to 500
C[C@@]1(O)CC[C@H]2[C@H](CC[C@@H]3[C@@H]2CC[C@]2(C)[C@@H](C(=O)Cn4nc5cccnc5n4)CC[C@@H]32)C1 [SA-14],,,,,> 500,100 to 500
C[C@@]1(O)CC[C@H]2[C@H](CC[C@@H]3[C@@H]2CC[C@]2(C)[C@@H](C(=O)Cn4cc5cc(F)ccc5n4)CC[C@@H]32)C1 [SA-16],,,,,> 500,100 to 500
C[C@@]1(O)CC[C@H]2[C@H](CC[C@@H]3[C@@H]2CC[C@]2(C)[C@@H](C(=O)Cn4cc5cccnc5n4)CC[C@@H]32)C1 [SA-18],C (“C” indicates an efficacy value of >500%),500 to 1000,> 2000,C (“C” indicates an efficacy value of >500%),,
C[C@@]1(O)CC[C@H]2[C@H](CC[C@@H]3[C@@H]2CC[C@]2(C)[C@@H](C(=O)Cn4cc5ccncc5n4)CC[C@@H]32)C1 [SA-20],C (“C” indicates an efficacy value of >500%),,,C (“C” indicates an efficacy value of >500%),,
C[C@@]1(O)CC[C@H]2[C@H](CC[C@@H]3[C@@H]2CC[C@]2(C)[C@@H](C(=O)Cn4cc5ccc(F)cc5n4)CC[C@@H]32)C1 [SA-22],,,,,> 500,100 to 500
Cc1cc2cn(CC(=O)[C@H]3CC[C@H]4[C@@H]5CC[C@@H]6C[C@](C)(O)CC[C@@H]6[C@H]5CC[C@]34C)nc2cn1 [SA-24],,,,,100 to 500,100 to 500
C[C@@]1(O)CC[C@H]2[C@H](CC[C@@H]3[C@@H]2CC[C@]2(C)[C@@H](C(=O)Cn4cc5ncc(Cl)cc5n4)CC[C@@H]32)C1 [SA-26],,,,,> 500,100 to 500
C[C@@]1(O)CC[C@H]2[C@H](CC[C@@H]3[C@@H]2CC[C@]2(C)[C@@H](C(=O)Cn4cc5nccnc5n4)CC[C@@H]32)C1 [SA-28],,,,,100 to 500,100 to 500
C[C@@]1(O)CC[C@H]2[C@H](CC[C@@H]3[C@@H]2CC[C@]2(C)[C@@H](C(=O)Cn4cc5cc(Cl)ncc5n4)CC[C@@H]32)C1 [SA-30],,,,,> 500,> 500
C[C@@]1(O)CC[C@H]2[C@H](CC[C@@H]3[C@@H]2CC[C@]2(C)[C@@H](C(=O)Cn4cc5ncncc5n4)CC[C@@H]32)C1 [SA-32],,,,,> 500,> 500
C[C@@]1(O)CC[C@H]2[C@H](CC[C@@H]3[C@@H]2CC[C@]2(C)[C@@H](C(=O)Cn4cc5cncnc5n4)CC[C@@H]32)C1 [SA-35],,,,,100 to 500,> 500
C[C@@]1(O)CC[C@H]2[C@H](CC[C@@H]3[C@@H]2CC[C@]2(C)[C@@H](C(=O)Cn4nc5ccc(Cl)cc5n4)CC[C@@H]32)C1 [SA-41],,,,,> 500,100 to 500
Cc1ccc2nn(CC(=O)[C@H]3CC[C@H]4[C@@H]5CC[C@@H]6C[C@](C)(O)CC[C@@H]6[C@H]5CC[C@]34C)nc2c1 [SA-44],,,,,100 to 500,100 to 500
C[C@@]1(O)CC[C@H]2[C@H](CC[C@@H]3[C@@H]2CC[C@]2(C)[C@@H](C(=O)Cn4nc5cc(Cl)cnc5n4)CC[C@@H]32)C1 [SA-57],,,,,> 500,100 to 500
C[C@@]1(O)CC[C@H]2[C@H](CC[C@@H]3[C@@H]2CC[C@]2(C)[C@@H](C(=O)Cn4nc5cccc(F)c5n4)CC[C@@H]32)C1 [SA-66],,,,,> 500,> 500
Cc1cccc2nn(CC(=O)[C@H]3CC[C@H]4[C@@H]5CC[C@@H]6C[C@](C)(O)CC[C@@H]6[C@H]5CC[C@]34C)nc12 [SA-69],,,,,100 to 500,100 to 500
C[C@@]1(O)CC[C@H]2[C@H](CC[C@@H]3[C@@H]2CC[C@]2(C)[C@@H](C(=O)Cn4nc5cccc(Cl)c5n4)CC[C@@H]32)C1 [SA-78],,,,,100 to 500,100 to 500
C[C@]12CC[C@H]3[C@@H](CC[C@@H]4C[C@@](O)(CF)CC[C@@H]43)[C@@H]1CC[C@@H]2C(=O)Cn1nc2ccccc2n1 [SA-80],,,,,> 500,> 500
C[C@]12CC[C@H]3[C@@H](CC[C@@H]4C[C@@](O)(CF)CC[C@@H]43)[C@@H]1CC[C@@H]2C(=O)Cn1cc2ncccc2n1 [SA-83],,,,,100 to 500,100 to 500
COC[C@@]1(O)CC[C@H]2[C@H](CC[C@@H]3[C@@H]2CC[C@]2(C)[C@@H](C(=O)Cn4nc5ccncc5n4)CC[C@@H]32)C1 [SA-125],,,,,> 500,100 to 500
C[C@@]1(O)CC[C@H]2[C@@H](CC[C@@H]3[C@@H]2CC[C@]2(C)[C@@H](C(=O)Cn4cc5ncccc5n4)CC[C@@H]32)C1 [SB-4],C (“C” indicates an efficacy value of >500%),,,C (“C” indicates an efficacy value of >500%),,
C[C@@]1(O)CC[C@H]2[C@@H](CC[C@@H]3[C@@H]2CC[C@]2(C)[C@@H](C(=O)Cn4nc5ccncc5n4)CC[C@@H]32)C1 [SB-8],,,,,> 500,100 to 500
C[C@@]1(O)CC[C@H]2[C@@H](CC[C@@H]3[C@@H]2CC[C@]2(C)[C@@H](C(=O)Cn4cc5ccncc5n4)CC[C@@H]32)C1 [SB-9],C (“C” indicates an efficacy value of >500%),,,B (“B” indicates an efficacy value of >100-500%),,
C[C@]12CC[C@H]3[C@@H](CC[C@H]4C[C@@](O)(CF)CC[C@@H]43)[C@@H]1CC[C@@H]2C(=O)Cn1nc2ccncc2n1 [SB-15],,,,,100 to 500,100 to 500
